≈ marks a conversion by molar mass, not a printed value.
Experiments:
[1] = system: Escherichia coli K-12 LA 290 R 64; assay: Minimal inhibitory concentration, agar dilution streak method; format: cell-based; settings: nutrient agar, 37° C, 18 hours, read-out: minimum inhibitory concentrations
Method: (§1) *Agar Agar dilution streak method (nutrient agar, 37° C, 18 hours)
(§2) *Agar dilution streak method (nutrient agar, 37° C, 18 hours).

[2] = system: Pseudomonas aeruginosa No.12; assay: as above; format: cell-based; settings: nutrient agar, 37° C, 18 hours, read-out: minimum inhibitory concentrations
Method: as §1, §2

[3] = system: Escherichia coli K-12 ML 1410 R 81; assay: as above; format: cell-based; settings: 18 h, read-out: minimum inhibitory concentrations
Method: as §1, §2

[4] = system: Escherichia coli K-12 ML 1630; assay: as above; format: cell-based; settings: K12ML1630, nutrient agar, 37° C, 18 hours, read-out: minimum inhibitory concentrations
Method: as §1, §2

[5] = system: Escherichia coli K-12 JR 66/W 677; assay: as above; format: cell-based; settings: Escherichia coli, 18 h, read-out: minimum inhibitory concentrations
Method: as §1, §2

[6] = system: Staphylococcus aureus FDA 209P; assay: as above; format: cell-based; settings: FDA209P, nutrient agar, 37° C, 18 hours, read-out: minimum inhibitory concentrations
Method: as §1, §2

[7] = system: Escherichia coli K-12 LA 290 R 55; assay: as above; format: cell-based; settings: 18 h, read-out: minimum inhibitory concentrations
Method: as §1, §2

[8] = system: Escherichia coli K-12 ML 1410; assay: as above; format: cell-based; settings: K12ML1410, nutrient agar, 37° C, 18 hours, read-out: minimum inhibitory concentrations
Method: as §1, §2

[9] = system: Escherichia coli K-12 LA 290 R 56; assay: as above; format: cell-based; settings: 18 h, read-out: minimum inhibitory concentrations
Method: as §1, §2

Escherichia coli K-12 = assay: as above; format: cell-based; settings: K12, nutrient agar, 37° C, 18 hours, read-out: minimum inhibitory concentrations
Method: as §1, §2

[10] = system: Pseudomonas aeruginosa A 3; assay: as above; format: cell-based; settings: A3, nutrient agar, 37° C, 18 hours, read-out: minimum inhibitory concentrations
Method: as §1, §2

[11] = system: Pseudomonas aeruginosa TI-13; assay: as above; format: cell-based; settings: TI13, nutrient agar, 37° C, 18 hours, read-out: minimum inhibitory concentrations
Method: as §1, §2

[12] = system: Escherichia coli K-12 ML 1629; assay: as above; format: cell-based; settings: K12ML1629, nutrient agar, 37° C, 18 hours, drug-resistant strain, read-out: minimum inhibitory concentrations
Method: as §1, §2

[13] = system: Escherichia coli K-12 W 677; assay: as above; format: cell-based; settings: K12W677, nutrient agar, 37° C, 18 hours, read-out: minimum inhibitory concentrations
Method: as §1, §2

nucleotidyl-transferase = settings: adenylylation of 2"-hydroxyl group with ATP; cited from earlier work
[14] = system: Pseudomonas aeruginosa 99; assay: Minimal inhibitory concentration, agar dilution streak method; format: cell-based; settings: nutrient agar, 37° C, 18 hours, read-out: minimum inhibitory concentrations
Method: [α]D^22 + 38°, (c 0.85, water).
as §1, §2

[15] = system: kanamycin-resistant strains; settings: strains producing 3'-hydroxyl phosphorylating enzyme; cited from earlier work

Row | SMILES | MIC [1] [µg/mL] | MIC [2] [µg/mL] | MIC [3] [µg/mL] | MIC [4] [µg/mL] | MIC [5] [µg/mL] | MIC [6] [µg/mL] | MIC [7] [µg/mL] | MIC [8] [µg/mL] | MIC [9] [µg/mL] | MIC (Escherichia coli K-12) [µg/mL] | MIC [10] [µg/mL] | MIC [11] [µg/mL] | MIC [12] [µg/mL] | MIC [13] [µg/mL] | inactivation by nucleotidyl-transferase (nucleotidyl-transferase) | MIC [14] [µg/mL] | activity against kanamycin-resistant strains [15]
1 | NC[C@@H]1CC[C@@H](N)[C@@H](O[C@H]2[C@H](O)[C@@H](O[C@H]3O[C@H](CO)[C@@H](O)[C@H](N)[C@H]3O)[C@H](N)C[C@@H]2N)O1 [DKB, 3',4'-dideoxykanamycin B] | 25 (≈ 55.4 µM) | 3.12 (≈ 6.91 µM) | 3.12 (≈ 6.91 µM) | 3.12 (≈ 6.91 µM) | 100 (≈ 221 µM) | 1.56 (≈ 3.45 µM) | > 100 | 1.56 (≈ 3.45 µM) | 25 (≈ 55.4 µM) | 1.56 (≈ 3.45 µM) | 3.12 (≈ 6.91 µM) | 3.12 (≈ 6.91 µM) | 3.12 (≈ 6.91 µM) | 1.56 (≈ 3.45 µM) | inactivate | 12.5 (≈ 27.7 µM) | actually effective
2 | NC[C@H]1O[C@H](O[C@H]2[C@H](O)[C@@H](O[C@H]3O[C@H](CO)[C@@H](O)[C@H](N)[C@H]3O)[C@H](N)C[C@@H]2N)[C@H](O)[C@@H](O)[C@@H]1O [Kanamycin, kanamycin] | 12.5 (≈ 25.8 µM) | 50 (≈ 103 µM) | > 100 | > 100 | > 100 | 3.12 (≈ 6.44 µM) | 100 (≈ 206 µM) | 1.56 (≈ 3.22 µM) | 12.5 (≈ 25.8 µM) | 0.78 (≈ 1.61 µM) | > 100 | > 100 | > 100 | 1.56 (≈ 3.22 µM) | inactivate | > 100 | 

Reference: patent publication US4107424A, “1-N-[(S)-α-hydroxy-ω-aminoacyl] derivatives of 3',4'-dideoxykanamycin B and 3'-deoxykanamycin B antibiotics” (Zaidan Hojin Biseibutsu Kagaku Kenkyu Kai, priority 1972, dated 1978)
